Experimental data taken from patent US12064408B2, “Compounds for the treatment of obesity and methods of use thereof” (The Children's Medical Center Corporation, priority 2012, dated 2024).

Experiments:
[1] = weight loss products; Sources: FDA 2010, Natural Medicines Comprehensive Database 2010; cited from earlier work
[2] = system: alanine transaminase (ALT); assay: Serum ALT by ELISA; format: in vivo; conditions: three weeks 100 μg/kg i.p., HFD-fed obese mice
Experimental: (§1) To investigate the effect of celastrol administration on liver function, serum levels of alanine transaminase (ALT) and aspartate transaminase (AST) were measured in mice following three weeks of celastrol treatment (100 μg/kg, i.p.). ALT and AST were measured using an enzyme-linked immunosorbent assay (ELISA) kit (from Bio Scientific).

mice = assay: Locomotor activity (Columbus Instruments Comprehensive Lab Animal Monitoring System); format: in vivo
Experimental: Locomotor activity was also normal in celastrol-treated mice. This is consistent with celastrol not having a toxic effect causing anorexia and weight loss, since the latter would be associated with decreased locomotor activity.
FIGS. 16A and 16B are graphs showing x (FIG. 16A) and y (FIG. 16B) direction ambulatory motion for control and celastrol in dark and light cycles. Toxicity was evaluated using Columbus Instruments Comprehensive Lab Animal Monitoring System we have measure the locomotor activity of the animals.

HFD-fed obese mice [3] = assay: Liver and kidney histology (H&E); format: in vivo; conditions: three weeks 100 μg/kg i.p.
[4] = system: aspartate transaminase (AST); assay: Serum AST by ELISA; format: in vivo; conditions: three weeks 100 μg/kg i.p., HFD-fed obese mice
Experimental: as §1

lean mice = assay: Leptin injection upon acute celastrol treatment, lean mice; format: in vivo; conditions: 6-hour time point, leptin 10 mg/kg ip, DMSO or celastrol 100 μg/kg ip pre-treatment
Experimental: (§2) It was therefore hypothesized that celastrol exerts anti-obesity effects through increasing leptin sensitivity in the brains of the HFD-fed obese mice. To test this hypothesis, leptin was administered to celastrol- or vehicle-treated HFD-fed obese animals. To avoid any possible leptin sensitizing effect of weight loss or decreased food intake created by celastrol administration, leptin injections were carried out upon acute celastrol treatment as described below.
(§3) Lean and HFD-fed obese mice were divided into four groups: 1) DMSO+saline, 2) DMSO+leptin, 3) celastrol+saline, and 4) celastrol+leptin (n=3 per group). Mice were injected (ip) with 100 μg/kg celastrol or vehicle (DMSO) one hour before dark cycle (day zero). 24 hours later, mice were injected for a second time with celastrol or DMSO (day 1), and all animals were then taken to 24 hour-fasting. On day two, at 21 hours of fasting, mice received a final injection of DMSO or celastrol. 30 minutes prior to dark cycle, at 23.5 hour of fasting, mice received a single ip injection of leptin (10 mg/kg, dissolved in saline), or saline. […] 1, 3, 6, 15, and 24-hour food intake and 24-hour body weight changes were recorded (FIG. 7A). […] This is clearly evident when food intake of the celastrol-treated mice is calculated in percent values (FIG. 7B). […]

HFD-fed obese mice [5] = assay: Leptin injection upon acute celastrol treatment, HFD-fed obese mice; format: in vivo
Experimental: as §2, §3

[Cr] [Chromium]
Safety [1]: Likely safe

CC1=C(O)C(=O)C=C2C1=CC=C1[C@@]2(C)CC[C@@]2(C)[C@@H]3C[C@](C)(C(=O)O)CC[C@]3(C)CC[C@]12C [celastrol]
ALT levels [2]: decreases
locomotor activity (mice; celastrol-treated mice): normal
x and y direction ambulatory motion counts (mice; dark and light cycles, versus control): not significantly different
visible sign of sickness and toxicity (mice; drug treated mice): do not show any visible sign
kidney morphology (HFD-fed obese mice [3]): no detectable change
AST levels [4]: decreases

Conjugated linoleic acid [Conjugated linoleic acid (CLA)]
Safety [1]: Possibly safe

B1: leptin: peptide hormone regulating food intake and body weight; injected ip dissolved in saline (protein, UniProt P41160 22-167, looked up)
Leptin: VPIQKVQDDTKTLIKTIVTRINDISHTQSVSAKQRVTGLDFIPGLHPILSLSKMDQTLAVYQQVLTSLPSQNVLQIANDLENLRDLLHLLAFSKSCSLPQTSGLQKPESLDGVLEASLYSTEVVALSRLQGSLQDILQQLDVSPEC
decrease in food intake upon leptin injection (lean mice): approximately 40%
decrease in food intake upon leptin injection (HFD-fed obese mice [5]; 6-hour time point, leptin 10 mg/kg ip, DMSO or celastrol 100 μg/kg ip pre-treatment): approximately 40%
24-hour body weight change (HFD-fed obese mice [5]; 24 hour ad libitum feeding period after 24-hour fasting): resistant
